Three compounds from patent publication US20090149482A1, “STEREOCHEMICALLY DEFINED DIPEPTIDE ESTERS OF ANTIVIRAL AGENTS FOR ENHANCED OCULAR TREATMENT” (priority 2001, published 2009) can be followed below.

Data set [1] has as its system Caco-2 cell suspension.
The subject of data set [2] is HSV-2. Description: In vitro antiviral screening, CPE inhibition in HFF cells. The format is cell-based, herpes simplex virus 2.
The target of data set [3] is T1, hPEPT1 (Homo sapiens, UniProt P46059).
T1 construct: endogenous in cells; host or cells: Caco-2 (human colon carcinoma, ATCC)
T1 sequence (P46059 1-708): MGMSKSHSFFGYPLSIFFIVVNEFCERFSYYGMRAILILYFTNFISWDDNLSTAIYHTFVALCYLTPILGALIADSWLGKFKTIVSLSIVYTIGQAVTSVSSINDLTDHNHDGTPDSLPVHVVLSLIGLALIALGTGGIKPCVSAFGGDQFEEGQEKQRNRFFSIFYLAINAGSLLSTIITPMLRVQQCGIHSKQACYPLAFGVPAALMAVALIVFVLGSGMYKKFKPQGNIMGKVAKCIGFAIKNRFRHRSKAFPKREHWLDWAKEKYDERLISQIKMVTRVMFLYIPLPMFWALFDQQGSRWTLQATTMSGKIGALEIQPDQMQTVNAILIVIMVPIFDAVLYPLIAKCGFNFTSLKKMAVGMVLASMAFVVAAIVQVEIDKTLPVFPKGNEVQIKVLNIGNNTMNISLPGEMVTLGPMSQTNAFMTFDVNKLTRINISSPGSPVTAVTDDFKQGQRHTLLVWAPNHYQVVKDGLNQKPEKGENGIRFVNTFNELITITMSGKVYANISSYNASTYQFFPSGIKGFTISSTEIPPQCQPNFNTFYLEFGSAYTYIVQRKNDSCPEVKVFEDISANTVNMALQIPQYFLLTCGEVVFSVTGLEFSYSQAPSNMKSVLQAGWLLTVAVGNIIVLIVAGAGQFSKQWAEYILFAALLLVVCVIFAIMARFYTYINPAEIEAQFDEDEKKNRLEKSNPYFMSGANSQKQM
Description: [3H] Glycylsarcosine uptake and its inhibition in Caco-2 cells (affinity towards peptide transporter). Format: cell-based. The settings on record: for Vmax of Gly-Sar uptake in presence of the drug: Gly-Sar with drug (10 mM); for Ki: read-out: Ki. An excerpt:
Materials: [^3H] Glycylsarcosine (Gly-Sar; 4 Ci/mmol) was purchased from Moravek Biochemicals (Brea, Calif.) and [^14C] Mannitol (50 mCi/mmol) was supplied by Amersham (Piscataway, N.J.). Human colon carcinoma derived Caco-2 cells were obtained from American Type Culture Collection (ATCC, Rockville, Md.). The growth medium, Dulbecco's modified Eagle Medium was obtained from Life Technologies (Grand Island, N.Y.). […] Fetal bovine serum (FBS) was purchased from JRH Biosciences (Lenexa, Kans.). Culture flasks (75 cm^2 growth area), polyester Transwells® (pore size 0.4 Cm with diameter 6.5 mm) and polyester membranes (pore size 0.4 Cm) were procured from Costar (Bedford, Mass.). The buffer components and solvents were obtained from Fisher Scientific (St. Louis, Mo.). All the di-peptide esters of acyclovir were custom synthesized in our laboratory. […] Cell Culture: All cultures were maintained in humidified incubator at 37° C. with a 5% carbon dioxide in air atmosphere. Caco-2 cells were obtained at passage 25 from American Type Culture Collection (ATCC) and grown in plastic tissue culture flasks. […] When 80% confluent, these cells were removed by treating them with Trypsin/EDTA and plated at a density of 100,000 cells/cm^2 on collagen coated plastic dishes containing clear polyester membranes (0.636 cm^2, […]) or 12-well tissue culture treated plastic plates. Cells were then grown in medium containing 10% FBS (heat-inactivated). […] [^14C] […] Metabolism studies in Cell Suspensions: Confluent Caco-2 cells, grown in tissue culture flasks were isolated with the aid of mechanical scraper and washed thrice with DPBS. […] One-hundred micro-liters of samples were withdrawn at predetermined time intervals and the sample was purified by precipitating the cellular proteins into the organic solvent mixture and stored at −80° C. until further analysis. The protein content of the cell suspension was determined by the method of Bradford using bovine serum albumin as the standard (BioRad protein estimation kit, Hercules, Calif.). […] Transport studies: Transport experiments were done using Side-Bi-Side™ diffusion cells (type VSC-1, Crown Glass Company Inc.) and Transwell® inserts. Prior to the experiment with Gly-Sar, Caco-2 cell monolayers grown on the clear polyester membranes and Transwell® inserts were washed with DPBS (pH 6.0) and incubated at 37° C. Freshly prepared drug solutions in DPBS (pH 6.0) was placed in the donor chamber and the receiver chamber was filled with DPBS. The volumes of donor and receptor chambers were 3 ml each for Side-Bi-Side™ diffusion cells and 0.5 ml and 1.5 ml respectively for Transwell® inserts. […] The samples were stored at −80° C. until analyzed HPLC. All experiments were performed at 37° C. […] The concentration dependent uptake of glycylsarcosine was studied using [^3H] […] For Dixon plots and Dose Response studies [^3H] […] Following incubation, the cell monolayers were washed three times with ice-cold HEPES buffer to terminate the uptake experiment. After the washings cells were lysed overnight using 1 ml 0.1% (w/v) Triton X-100 in 0.3 N NaOH at room temperature. Aliquots (500 μl) from each well were then transferred to scintillation vials containing 5 ml scintillation cocktail (Fisher Scientific, Fairlawn, N.J.). […] The amount of protein in the cell lysate was measured by the BioRad protein estimation kit using bovine serum albumin as standard (BioRad Protein estimation Kit, Hercules, Calif.). Analytical Procedures: All samples were assayed using HPLC. […] The column used was a C18 Luna column 4.6×250 mm (Phenomenex). The mobile phase consisted of a mixture of buffer and an organic modifier. The percentage of organic phase was varied in order to elute compounds of interest.

The test system of data set [4] is HCMV. Description: In vitro antiviral screening, CPE inhibition in HFF cells. The format is cell-based, human cytomegalovirus.
For data set [5] the following is noted: rats, jugular vein.
The test system of data set [6] is EBV. Description: In vitro antiviral screening, VCA Elisa. The format is cell-based, epstein-barr virus.
For data set [7], the system named is human fibroblast foreskin cells (HFF).
The conditions of data set [8]: rats, portal vein.
The subject of data set [9] is HSV-1. Description: In vitro antiviral screening, CPE inhibition in HFF cells. Format: cell-based, herpes simplex virus 1. The settings on record: read-out: EC50 (concentration required to inhibit viral cytopathogenicity by 50%).
Data set [10] deals with rabbit corneal cell line (SIRC).
The test system of data set [11] is Caco-2 monolayers.
For data set [12], the system named is VZV. Description: In vitro antiviral screening, CPE inhibition in HFF cells. The format is cell-based, varicella zoster virus.
Data set [13] relates to oligopeptide transporter on the rabbit cornea.
In data set [14] the test system is HSV-1 strain McKrae. Description: HSV-1 epithelial keratitis rabbit model, topical treatment, SLE scores. Format: in vivo. Conditions: 14 days post-inoculation, 1% topical 5 times per day. An excerpt: (§1) The rabbit eye is an excellent model to study acute HSV-1 epithelial keratitis. Also, spontaneous and induced ocular HSV-1 shedding and corneal epithelial disease in rabbits has been used as a model of human ocular HSV-1 reactivation and recurrence. HSV-1 strain McKrae was used in studies for epithelial keratitis. HSV-1 strain RE was used for studies of HSV stromal keratitis.
i) Epithelial Keratitis: A group of ten rabbits was used to study each compound. Both eyes of all rabbits were used. An aqueous vehicle (like a placebo) and one positive control were obtained using 1% TFT (Viroptic®). Each compound at 1% concentration (TFT=33 mM, Gly-Gly-ACV=26.6 mM, Val-Val-ACV=18.6 mM) were applied (50 μl) topically 5 times per day every two hours starting at 8:00 a.m. and ending at 4:00 p.m. The treatment began on the 3rd post-inoculation day and continued for 5 consecutive days. Slit-lamp examinations were performed once every day for 8 days and thereafter once every other day until lesions resolved.

Data set [15] has as its system HSV-1 strain RE. Description: HSV-1 stromal keratitis rabbit model, topical treatment, SLE scores. The format is in vivo. The settings on record: 13 days post-inoculation, 1% topical.
Source text: as §1
ii) Stromal Keratitis: The experiment is similar to the part (i) experiment as far as the treatment cycles for all experimental drugs (TFT and Val-Val-ACV) are concerned. The effect of Val-Val-ACV on stromal keratitis induced by intrastromal injection with a high (20 μl of a 1×10^7 pfu/ml stock) titer of HSV-1RE strain was compared to that of TFT. Each compound at 1% concentration (TFT=33 mM, Val-Val-ACV=18.6 mM) was applied topically. The same scoring as noted in Table 4 is used for stromal keratitis. Emphasis is placed on the stromal edema and visibility into the aqueous chamber and the visualization of the pupil and iris.
A group of ten rabbits were used to study each compound. Both eyes of all rabbits were treated. Three to four groups of 10 rabbits are used in one experiment. This includes vehicle control, TFT, and the newly synthesized antiviral Val-Val-ACV.

A short description of data set [16]: in vitro. The settings on record: human, Caco-2, pH 7.4.
The mark [17] stands for this setting: oral, analyte amino acid intermediate.
[18] abbreviates: oral 20.0 mg/kg equivalent, total concentration in terms of ACV.

Where “and” joins values, the source holds several entries; their conditions need not be identical. Equal values may be shown once. Read-outs that look alike come from different tables or passages of the source.

A word on the Ki: it is the dissociation constant of the complex between target and ligand, obtained from inhibition or displacement. As usually defined, the CC50 is the concentration giving 50% cytotoxicity. High values mean better tolerance by the cells, low ones harm at low concentration. `CC(C)C(NC(=O)CN)C(=O)OCCOCn1cnc2c(=O)[nH]c(N)nc21` (stereo not drawn) [Gly-Val-ACV, Glycine-Valine-Acyclovir]: the “10^2 × kobs” value in [1] (Caco-2, pH 7.4) is 0.637 ± 0.01 min^−1mg^−1 protein. This compound had a t1/2 in data set [1] (human, Caco-2, pH 7.4) of 108.1 ± 2.4 min. This compound also registered an EC50 in data set [2] of 22.7 µM. In [3] (Lineweaver-Burk), the “Vmax of Gly-Sar uptake in presence of the drug” value is 0.095 ± 0.07 µmol/min/mg and the Ki came to 1820 ± 340 µM. The Ki in data set [3] (Michaelis-Menten) is 1420 ± 240 µM. The compound also gave an EC50 in data set [4] of 59.5 µM. In addition, in [5] (oral 20.0 mg/kg equivalent), the “AUC(0-t)(CC)” value is 633.8 ± 115.5 µg·min/mL and the “AUCinf(CC)” value was 900.7 ± 74.8 µg·min/mL. In data set [5] (oral), the “Clast(CC)” value was 1100 ± 210 ng/mL, the “Cmax(CC)” value was found to be 7200 ± 3300 ng/mL and the “Tmax(CC)” value was 22.2 ± 8.3 min. For the same compound, in data set [5] (oral, analyte acyclovir), the “AUC(0-t)(ACV)” value was determined as 571.68 ± 99.22 µg·min/mL, the “Cl(ACV)” value amounted to 13.3 ± 3.5 mL/min, the “Cmax(ACV)” value came out at 6900 ± 1500 ng/mL and the “MRT(ACV)” value was 79.61 ± 10.64 min. For the same compound, in data set [5] (setting [17]), the “AUC(0-t)(AA)” value was 133.1 ± 48.2 µg·min/mL and the “Cl(AA)” value came to 26.8 ± 4.5 mL/min. Further, in [6], the EC50 was 5.61 µM. The compound further registered a CC50 in data set [7] greater than 160 µM. Further, in data set [8] (setting [18]), the “AUC(0-t)(TC)” value was 416.1 ± 140.9 µg·min/mL and the “AUCinf(TC)” value stood at 598.7 ± 164.1 µg·min/mL. Moreover, in [8] (oral), the “Clast(TC)” value was determined as 810 ± 120 ng/mL and the “Tmax(TC)” value was 21.4 ± 5.77 min. Also, in data set [8] (oral, analyte acyclovir), the “AUC(0-t)(ACV)” value worked out at 347.8 ± 108.2 µg·min/mL, the “Cl(Acv)” value is 12.5 ± 5.5 mL/min, the “Cmax(ACV)” value was 4060 ± 1440 ng/mL and the “MRT(ACV)” value is 64.1 ± 5.35 min. In [8] (setting [17]), the “AUC(0-t)(AA)” value came out at 143.6 ± 51.4 µg·min/mL, the “Cl(AA)” value was found to be 31.9 ± 5.3 ml min^−1I and the “Cmax(AA)” value came to 990 ± 540 ng/mL. Further, the “Cmax(TC)” value in data set [8] (oral, total concentration in terms of ACV) turned out to be 4070 ± 1030 ng/mL. Further, the EC50 in data set [9] turned out to be 12.6 µM. Further, the “% viable cells” value in data set [10] came out at 81.1±6.7%. Moreover, in [11], the “Vmax of concentration dependent transport” value is 0.014±0.00058 moles cm^−2 min^−1 and the “inhibition in transport in presence of Gly-Sar” value turned out to be 63 % inhibition. Moreover, the Papp in [11] (Caco-2, pH 6) is given as 2.80±0.59 ×10^−6 cm/sec. The Papp in data set [11] (Caco-2, pH 7.4) is 5.23±0.57 ×10^−6 cm/sec. The Km in data set [11] (read-out: Km of concentration dependent transport) came out at 3.16 ± 0.31 mM. The compound further displayed an EC50 in data set [12] of 0.38 µM. In data set [13], the “Papp (% Control) of [3H] Val-ACV” value was 23.7 (±6.6) % Control.

Regarding `O=c1[nH]c(=O)n([C@H]2C[C@H](O)[C@@H](CO)O2)cc1C(F)(F)F` [TFT, trifluorothymidine, reference compound], the “Concentration required to achieve an SLE Score of 0.3” value in data set [14] is 33.3 mM. The “Concentration required to achieve an SLE Score of 0.2” value in data set [15] was 33.3 mM. Further, the percent survival amounted to 86.98% in [10] (SIRC cells, 0.025 mM); 80.48% in data set [10] (SIRC cells, 0.1 mM); 64.76% in data set [10] (SIRC cells, 0.5 mM); 54.35% in data set [10] (SIRC cells, 1 mM); 0.01% in [10] (SIRC cells, 5 mM). For the same compound, the “% viable cells” value in [10] (SIRC cells, 5 mM) was 0.01% and 0.01±0.1%.

As usually defined, the half-life is how long it takes for the measured level to halve. Regarding `Nc1nc2c(ncn2COCCOC(=O)CNC(=O)C(N)Cc2ccc(O)cc2)c(=O)[nH]1` (stereo not drawn) [Tyr-Gly-ACV], the “10^2 × kobs” value in data set [1] (Caco-2 cell suspension at pH 7.4, * = no intact drug detected during the experiment) is 5.22 ± 0.58 min^−1mg^−1 protein. In addition, in [3] (Lineweaver-Burk), the “Vmax of Gly-Sar uptake in presence of the drug” value stood at 0.087 ± 0.09 µmol/min/mg and the Ki worked out at 8230 ± 430 µM. Besides, in data set [3] (Michaelis-Menten), the Ki amounted to 7990 ± 540 µM. The same compound displayed a half-life at 0.2 mM in data set [16] of 13.3 ± 1.5 min.
